Experimental data published in article PMC4440792 (ChemMedChem, 2014).
Ends that are not written are not given here.

test system: human red blood cells; test: Hemolytic assay; type: cell-based; conditions: human RBCs in PBS, 37°C, 1 h; representative of 4 independent determinations

GLLKRIKTLL-NH2 [Anoplin] was tested, and the “HD10 (peptide concentration that results in lysis of 10% red blood cells)” value was over 64 μm.

First: CC(C)C[C@H](NC(=O)[C@H](CCCCN)NC(=O)[C@H](C)NC(=O)[C@H](CC(C)C)NC(=O)[C@H](CCCCN)NC(=O)[C@H](CCCCN)NC(=O)[C@H](C)NC(=O)[C@H](CC(C)C)NC(=O)[C@H](CCCCN)NC(=O)[C@H](C)NC(=O)[C@H](CC(C)C)NC(=O)[C@@H](N)CCCCN)C(=O)N[C@@H](C)C(=O)N[C@@H](CCCCN)C(N)=O [PAP]
Second: GGHGLLKRIKTLL-NH2 [GGH–anoplin]
The “HD10 (peptide concentration that results in lysis of 10% red blood cells)” value of the first is higher: 64 μm for the first, 16 μm for the second.

RAGLQFPVGRVHRLLRK-NH2 [sh-Buforin] was tested, and the “HD10 (peptide concentration that results in lysis of 10% red blood cells)” value was 64 μm.
